Literature values as cited in patent US7265248B1, “Compositions and methods for the treatment of malaria” (Technology Innovations, LLC, priority 2005, dated 2007).
Like-named read-outs stand apart in the source and are kept apart here.

How the values were obtained:
alpha/beta III = molecular target: T1, alpha/beta III (Bos taurus, UniProt Q2T9S0); conditions: compared with unfractionated tubulin
T1 construct: microtubules were prepared from bovine cerebra by the method of Fellous et al and tubulin was purified therefrom by phosphocellulose chromatography; from tissue; host or cells: bovine cerebra (brain)

alpha/beta II = molecular target: T2, alpha/beta II (Bos taurus, UniProt Q6B856); conditions: compared with unfractionated tubulin
T2 construct: microtubules were prepared from bovine cerebra by the method of Fellous et al and tubulin was purified therefrom by phosphocellulose chromatography; from tissue; host or cells: bovine cerebra (brain)

alpha/beta IV = molecular target: T3, alpha/beta IV (Bos taurus, UniProt Q3ZBU7); conditions: compared with unfractionated tubulin, alpha/beta II, alpha/beta III
T3 construct: microtubules were prepared from bovine cerebra by the method of Fellous et al and tubulin was purified therefrom by phosphocellulose chromatography; from tissue; host or cells: bovine cerebra (brain)

[1] = not given; remark: listed apart in the source
[2] = in vivo
alpha/beta III dimer = alpha/beta III dimer (Bos taurus, UniProt Q2T9S0); conditions: compared with alpha/beta II and alpha/beta IV dimers
Sequence of alpha/beta III dimer (Q2T9S0 whole entry): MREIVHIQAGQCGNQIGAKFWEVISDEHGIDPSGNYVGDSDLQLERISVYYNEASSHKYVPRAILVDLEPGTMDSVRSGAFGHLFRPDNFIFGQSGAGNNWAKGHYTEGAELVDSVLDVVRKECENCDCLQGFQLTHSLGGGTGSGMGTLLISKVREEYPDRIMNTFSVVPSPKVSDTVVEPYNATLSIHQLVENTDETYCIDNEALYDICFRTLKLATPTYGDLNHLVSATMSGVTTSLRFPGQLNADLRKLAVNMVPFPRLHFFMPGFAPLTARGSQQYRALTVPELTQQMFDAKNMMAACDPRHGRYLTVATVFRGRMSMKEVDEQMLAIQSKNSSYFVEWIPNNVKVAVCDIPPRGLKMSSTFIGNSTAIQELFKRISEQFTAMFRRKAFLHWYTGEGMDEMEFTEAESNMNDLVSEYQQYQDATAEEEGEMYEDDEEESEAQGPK
Sequence of alpha/beta III dimer (P81947 whole entry, further chain): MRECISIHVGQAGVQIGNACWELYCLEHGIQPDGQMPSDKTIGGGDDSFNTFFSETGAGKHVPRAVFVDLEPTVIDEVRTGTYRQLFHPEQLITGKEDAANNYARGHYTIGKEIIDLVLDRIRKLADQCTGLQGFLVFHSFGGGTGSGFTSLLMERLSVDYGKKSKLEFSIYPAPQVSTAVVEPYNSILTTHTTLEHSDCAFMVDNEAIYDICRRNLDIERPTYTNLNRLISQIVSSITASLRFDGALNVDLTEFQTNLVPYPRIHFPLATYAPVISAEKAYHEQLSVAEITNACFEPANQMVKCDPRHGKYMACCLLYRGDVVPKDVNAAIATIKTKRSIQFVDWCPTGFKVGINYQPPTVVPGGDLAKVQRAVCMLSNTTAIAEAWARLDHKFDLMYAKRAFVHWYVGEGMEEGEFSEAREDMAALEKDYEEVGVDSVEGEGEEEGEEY

T1 sequence (Q2T9S0 whole entry): as the sequence (Q2T9S0 whole entry) above
T1 sequence (P81947 whole entry, further chain): as the sequence (P81947 whole entry, further chain) above
T2 sequence (P81947 whole entry): as the sequence (P81947 whole entry, further chain) above
T2 sequence (Q6B856 whole entry): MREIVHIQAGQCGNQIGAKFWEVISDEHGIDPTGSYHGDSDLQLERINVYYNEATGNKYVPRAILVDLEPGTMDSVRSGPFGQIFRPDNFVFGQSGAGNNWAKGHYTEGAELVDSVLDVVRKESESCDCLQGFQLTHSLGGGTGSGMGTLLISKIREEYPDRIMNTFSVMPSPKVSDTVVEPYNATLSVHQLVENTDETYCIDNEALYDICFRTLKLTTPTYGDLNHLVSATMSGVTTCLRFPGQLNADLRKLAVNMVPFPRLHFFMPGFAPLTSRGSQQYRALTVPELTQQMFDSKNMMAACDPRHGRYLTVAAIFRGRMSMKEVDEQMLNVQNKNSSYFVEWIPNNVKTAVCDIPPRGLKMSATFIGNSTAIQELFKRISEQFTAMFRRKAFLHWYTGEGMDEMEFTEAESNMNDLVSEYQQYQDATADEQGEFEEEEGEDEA
T3 sequence (P81947 whole entry): as the sequence (P81947 whole entry, further chain) above
T3 sequence (Q3ZBU7 whole entry): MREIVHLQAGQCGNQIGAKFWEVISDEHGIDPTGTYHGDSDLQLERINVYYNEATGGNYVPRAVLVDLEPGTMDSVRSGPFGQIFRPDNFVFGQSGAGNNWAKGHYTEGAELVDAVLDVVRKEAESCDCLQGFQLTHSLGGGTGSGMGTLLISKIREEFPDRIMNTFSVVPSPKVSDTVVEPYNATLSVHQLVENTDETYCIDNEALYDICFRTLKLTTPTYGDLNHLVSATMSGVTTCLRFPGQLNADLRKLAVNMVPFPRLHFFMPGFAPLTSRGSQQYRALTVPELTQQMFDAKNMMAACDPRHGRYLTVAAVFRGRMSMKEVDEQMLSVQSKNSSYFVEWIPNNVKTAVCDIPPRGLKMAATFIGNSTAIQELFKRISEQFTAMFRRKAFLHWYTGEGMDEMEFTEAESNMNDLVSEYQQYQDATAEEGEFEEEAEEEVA

SMILES: COc1cc(OC)c(Cl)c(-n2c(-c3ccccc3)cc(=O)c(C)c2-c2ccc(F)cc2)c1 [IKP-104]
- apparent dissociation constant for the high-affinity site (Kd1) (alpha/beta III): lower than that of unfractionated tubulin
- apparent dissociation constant for the high-affinity site (Kd1) (alpha/beta II): lower than that of unfractionated tubulin
- apparent dissociation constant for the high-affinity site (Kd1) (alpha/beta IV): greater than those of unfractionated tubulin, alpha/beta II, or alpha/beta III

SMILES: O=C1C(O)=C([C@H]2CC[C@H](c3ccc(Cl)cc3)CC2)C(=O)c2ccccc21 [atovaquone]
- protein binding: 99%
- half life ([1]; in vivo): 36 to 72 h
- pharmacokinetic profile ([1]; in words): double peaking
- side effects [2]: rash, vomiting, diarrhea, fever and headache

SMILES: CCN(CC)CCCC(C)Nc1ccnc2cc(Cl)ccc12 (stereo not shown) [chloroquine]
- volume of distribution ([1]; in vivo): over 100 l/kg
- half life ([1]; in words): days to weeks
- side effects [2]: cardiovascular and CNS effects

SMILES: OC(c1cc(C(F)(F)F)nc2c(C(F)(F)F)cccc12)C1CCCCN1 (stereo not shown) [mefloquine]
- protein binding: ~98%
- volume of distribution ([1]; in words): several times the volume of body water

SMILES: CC(=O)O[C@H]1C(=O)[C@@]2(C)[C@H]([C@H](OC(=O)c3ccccc3)[C@]3(O)C[C@H](OC(=O)[C@H](O)[C@@H](NC(=O)c4ccccc4)c4ccccc4)C(C)=C1C3(C)C)[C@]1(OC(C)=O)CO[C@@H]1C[C@@H]2O [paclitaxel]
- interaction with ligand (alpha/beta III dimer): much less strongly

SMILES: COc1cc(NC(C)CCCN)c2ncccc2c1 (stereo not shown) [primaquine]
- side effects [2]: blood dyscrasias

SMILES: CCc1nc(N)nc(N)c1-c1ccc(Cl)cc1 [pyrimethamine]
- half life ([1]; in vivo): 80 to 95 h
- side effects [2]: blood dyscrasias
